Laboratory results reported in patent publication US6362166B1, “Antipicornaviral compounds and methods for their use and preparation” (Agouron Pharmaceuticals, Inc., priority 1996, dated 2002).
Like-named read-outs stand apart in the source and are kept apart here.

How the values were obtained:
[1] = molecular target: T1, Recombinant Rhinovirus 3C protease (RVP) serotype-14 (Human rhinovirus 14, UniProt P03303); experiment: Inhibition of Rhinovirus Protease (fluorescence resonance energy transfer assay), serotype 14; format: biochemical, human rhinovirus (HRV); settings: for kinact/KI: pH 7.6, read-out: kobs/I
T1 construct: Recombinant Rhinovirus 3C proteases from serotypes 14, 16, 2 or 89; made in house

[2] = molecular target: T2, Recombinant Rhinovirus 3C protease (RVP) serotype 2 (Human rhinovirus 2, UniProt P04936); experiment: Inhibition of Rhinovirus Protease (fluorescence resonance energy transfer assay), serotype 2; format: biochemical, human rhinovirus (HRV)
T2 construct: Recombinant Rhinovirus 3C proteases from serotypes 14, 16, 2 or 89; made in house
Procedure: (§1) Stock solution (50 mM, in DMSO) of various compounds were prepared; dilutions were in the same solvent. Recombinant Rhinovirus 3C proteases from serotypes 14, 16, 2 or 89 were prepared by the following standard chromatographic procedures: (1) ion exchange using Q Sepharose Fast Flow from Pharmacia; (2) affinity chromatography using Affi-Gel Blue from Biorad; and (3) sizing using Sephadex G-100 from Pharmacia. Assays contained 2% DMSO, 50 mM tris pH 7.6, 1 mM EDTA, a compound at the indicated concentrations, approximately 1 μM substrate, and 50-100 nM protease. […] The kobs/I values were obtained from reactions initiated by addition of enzyme rather than substrate. RVP activity is measured in the fluorescence resonance energy transfer assay. The substrate was (N-terminal) DABCYL-([…]Gyl)-EDANS. In the uncleaved peptide, the EDANS fluorescence was quenched by the proximal DABCYL moeity. When the peptide was cleaved, the quenching was relieved, and activity was measured as an increase in fluorescence signal.
In the above table, all data is RVP serotype-14 unless otherwise noted in parentheses. All strains of human rhinovirus (HRV) were purchased from American Type Culture Collection (ATCC), except for serotype 14, which was produced from the infectious cDNA clone constructed and supplied to us by Dr. Roland Rueckert at the Institute for Molecular Virology, University of Wisconsin, Madison, Wisc. […] The data in the column designated kobs/I was measured from progress curves in enzyme start experiments.

[3] = molecular target: T3, Recombinant Rhinovirus 3C protease (RVP) serotype 89 (Human rhinovirus A serotype 89, UniProt P07210); experiment: Inhibition of Rhinovirus Protease (fluorescence resonance energy transfer assay), serotype 89; format: biochemical, human rhinovirus (HRV)
T3 construct: Recombinant Rhinovirus 3C proteases from serotypes 14, 16, 2 or 89; made in house
Procedure: as §1
In the above table, all data is RVP serotype-14 unless otherwise noted in parentheses. […] The data in the column designated kobs/I was measured from progress curves in enzyme start experiments.

[4] = test system: HRV-14; experiment: Antirhinoviral HI-HeLa Cell Culture Assay (Cell Protection Assay, XTT dye reduction); format: cell-based, human rhinovirus (HRV) serotype-14; settings: HI-HeLa cells infected with HRV-14, m.o.i. 0.13, two days, XTT, read-out: EC50
Summary of the method: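 HI-HeLa cells infected with HRV-14 at m.o.i. 0.13 or mock-infected, then incubated with compounds for two days. Cell protection read by XTT/PMS formazan at 450/650 nm; therapeutic index = CC50/EC50.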

[5] = test system: HI-HeLa cells; experiment: Cytotoxicity in mock-infected HI-HeLa cells (antirhinoviral assay, XTT); format: cell-based
[6] = test system: Human Rhinovirus-serotype 10 (HRV-10); experiment: Normal Human Bronchial Epithelial Cell Assay (MTT); format: cell-based; settings: normal human bronchial cells, HRV-10 at m.o.i. 10, 3-4 days at 34° C., read-out: ED50 (the source's name)
Procedure: Normal human bronchial cells were obtained from cadavers and cultured. The cells were plated at 2×10^4 per well in a […] plate. They were allowed to adhere and grow for 24 hours in 200 μL of serum-free bronchial/tracheal epithelial cell growth medium at 37° C. with 5% CO2. Human Rhinovirus-serotype 10 (HRV-10) was purchased from American Type Culture Collection (ATCC). To start the assay, the supernatant was removed, and HRV-10 at an m.o.i. of 10 (virus particles/cell) was added to each well along with the appropriate amount of compound of formula I or II. The plate was then incubated at 34° C. After 3 hours the supernatant was removed, and 200 μL of media was added along with the same concentration of compound as used in the beginning of the assay. The plates were incubated for 3-4 days at 34° C. To determine the amount of cell growth, an MTT assay (0.5 mgs/mL), as described in Mosmann, T. J. J. Immunol. Methods 1983, 65, 55-63, which is incorporated herein by reference, was performed on the cells, and the plate was read at an optical density of 540 nm. The compounds were tested against control compound Pirodavir, obtained from Janssen Pharmaceuticals. The EC50 was measured as described above for the HI-HeLa Cell Culture Assay.

[7] = test system: CVB-3; experiment: Anticoxsackieviral HI-HeLa Cell Culture Assay (XTT dye reduction); format: cell-based, Coxsackie strain B-3 (CVB-3); settings: HI-HeLa cells infected with CVB-3, m.o.i. 0.08, one day
Procedure: (§2) Specifically, HI-HeLa cells were infected wtih […] at a multiplicity of infection (m.o.i.) of 0.08 or mock-infected with medium only. Infected or mock-infected cells were resuspended at 8×10^5 cells per mL and incubated with appropriate concentrations of compound. One day later, XTT/PMS were added to test plates and the amount of formazan produced was quantified spectrophotometrically at 450/650 nm. […] The therapeutic index (TI) was calculated by dividing the CC50 by the EC50.
(§3) The Coxsackie strain B-3 (CVB-3) was purchased from American Type Culture Collection (ATCC). Virus stocks were propgated and antiviral assays were performed in Hi-HeLa cells (ATCC). Cells were grown in Minimal Essential Medium with 10% fetal bovine serum.

[8] = test system: HI-HeLa cells; experiment: Cytotoxicity in mock-infected HI-HeLa cells (anticoxsackieviral assay, XTT); format: cell-based
Procedure: as §2, with “The ability of compounds to protect calls against CVB-3 infection was measured by the XTT dye reduction method, which is described in Weislow, O. S., R. Kiser, D. L. Fine, J. Bader, R. H. Shoemaker, and M. R. Boyd, 1989, J. Natl. Cancer Inst. 81:577-586, which is incorporated herein by reference. Specifically,” for “Specifically,”
as §3

[9] = Cytotoxicity in mock-infected HI-HeLa cells (antirhinoviral assay, XTT); format: cell-based; settings: human
[10] = molecular target: T4, Recombinant Rhinovirus 3C protease (RVP) serotype 16 (Human rhinovirus 16, UniProt Q82122); experiment: Inhibition of Rhinovirus Protease (fluorescence resonance energy transfer assay), serotype 16; format: biochemical, human rhinovirus (HRV); settings: pH 7.6; RVP serotype 16; progress curves in enzyme start experiments; read-out: kobs/I
T4 construct: Recombinant Rhinovirus 3C proteases from serotypes 14, 16, 2 or 89; made in house

[11] = Cytotoxicity in mock-infected HI-HeLa cells (anticoxsackieviral assay, XTT); format: cell-based; settings: human; mock-infected HI-HeLa cells; one day; XTT
Procedure: as §2, with “The ability of compounds to protect calls against CVB-3 infection was measured by the XTT dye reduction method, which is described in Weislow, O. S., R. Kiser, D. L. Fine, J. Bader, R. H. Shoemaker, and M. R. Boyd, 1989, J. Natl. Cancer Inst. 81:577-586, which is incorporated herein by reference. Specifically,” for “Specifically,”
as §3

[12] = progress curves in enzyme start experiments
[13] = mock-infected HI-HeLa cells, two days, XTT, read-out: CC50
[14] = pH 7.6, progress curves in enzyme start experiments, read-out: kobs/I

T1 sequence (P03303 1538-1719): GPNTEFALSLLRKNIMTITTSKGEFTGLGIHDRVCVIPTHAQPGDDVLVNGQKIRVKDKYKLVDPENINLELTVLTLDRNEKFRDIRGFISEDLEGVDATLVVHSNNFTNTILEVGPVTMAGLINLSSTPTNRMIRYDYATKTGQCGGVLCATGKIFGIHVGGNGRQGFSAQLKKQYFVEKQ
T2 sequence (P04936 1508-1690): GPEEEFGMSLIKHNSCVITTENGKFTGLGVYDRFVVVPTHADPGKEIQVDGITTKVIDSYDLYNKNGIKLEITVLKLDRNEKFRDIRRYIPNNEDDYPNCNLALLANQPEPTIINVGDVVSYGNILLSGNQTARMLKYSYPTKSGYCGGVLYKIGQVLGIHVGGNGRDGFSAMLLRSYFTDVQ
T3 sequence (P07210 1522-1704): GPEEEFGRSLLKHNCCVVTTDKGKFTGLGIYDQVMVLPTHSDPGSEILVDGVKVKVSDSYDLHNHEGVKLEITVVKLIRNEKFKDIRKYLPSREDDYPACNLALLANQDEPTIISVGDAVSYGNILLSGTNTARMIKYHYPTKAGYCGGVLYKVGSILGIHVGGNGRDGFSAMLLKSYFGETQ
T4 sequence (Q82122 1511-1693): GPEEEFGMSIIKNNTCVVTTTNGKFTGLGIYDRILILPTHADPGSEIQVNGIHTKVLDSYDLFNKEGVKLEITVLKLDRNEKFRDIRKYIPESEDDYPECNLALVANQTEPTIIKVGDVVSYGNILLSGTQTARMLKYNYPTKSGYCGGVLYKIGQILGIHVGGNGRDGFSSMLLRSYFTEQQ

| Compound | Ki [1] [µM] | kinact/KI [1] [M⁻¹ s⁻¹] | EC50 ([4]; Rhinovirus B, HRV14, 48 h) [nM] | CC50 at 2 days [9, 13] [µM] | melting point | EC50 ([6]; Epithelial cell) [nM] | EC50 ([7]; 24 h) [µM] | CC50 at 1 day [11] [µM] | further results |
| --- | --- | --- | --- | --- | --- | --- | --- | --- | --- |
| CCOC(=O)/C=C/[C@H](CCC(N)=O)NC(=O)[C@H](Cc1ccccc1)NC(=O)[C@H](CC(C)C)NC(=O)OCc1ccccc1 [Compound 3, Ethyl-3-(CBZ-L-Leu-L-Phe-L-Gln)-E-Propenoate] | – | – | – | – | – | – | – | – | INHIB (percent inhibition) ([1]; RVP serotype-14, 0.1 μM compound, 10 minute preincubation with 50 nM RVP): 81(0.1) percent; kobs/I ([1]; RVP serotype-14, progress curves in enzyme start experiments): 37,000 M-1 sec-1; kobs/I [2, 12]: 1,900 M-1 sec-1; kobs/I [3, 12]: 3,400 M-1 sec-1; EC50 [4]: 610 nM; CC50 [5]: > 320 µM; EC50 [6]: 40 nM; EC50 [7]: 39.8 µM; CC50 [8]: > 320 µM |
| CCOC(=O)/C(F)=C\[C@H](CCC(N)=O)NC(=O)[C@H](Cc1ccccc1)NC(=O)[C@H](CC(C)C)NC(=O)OCc1ccccc1 [Compound 8, Ethyl-2-Fluoro-3-(CBZ-L-Leu-L-Phe-L-Gln)-E-Propenoate] | 36 | 61 | > 320000 | > 320 | 210 to 211 °C | – | – | – | – |
| CC(=O)/C=C/[C@H](CCC(N)=O)NC(=O)[C@H](Cc1ccccc1)NC(=O)[C@H](CC(C)C)NC(=O)OCc1ccccc1 [Compound 13, 4-(CBZ-L-Leu-L-Phe-L-Gln)-E-3-Butene-2-one] | 6.5 | 54000 | 2000 | 58.9 | – | 0.4 | > 100 | > 100 | kinact/KI [10]: 9000 M⁻¹ s⁻¹; kinact/KI [2, 14]: 2400 M⁻¹ s⁻¹; kinact/KI [3, 14]: 5500 M⁻¹ s⁻¹ |
| CC(C)C[C@H](NC(=O)OCc1ccccc1)C(=O)N[C@@H](Cc1ccccc1)C(=O)N[C@H](/C=C/C(=O)N(C)C)CCC(N)=O [Compound 22, N,N-Dimethyl-3-(CBZ-L-Leu-L-Phe-L-Gln)-E-Propenamide] | 4.3 | 1300 | 56200 | 251 | 174 to 175 °C (dec.) | – | – | – | – |
| CON(C)C(=O)/C=C/[C@H](CCC(N)=O)NC(=O)[C@H](Cc1ccccc1)NC(=O)[C@H](CC(C)C)NC(=O)OCc1ccccc1 [Compound 37] | 18.8 | 5900 | 4000 | > 100 | – | – | 17.8 | > 100 | – |
| CCOC(=O)c1ccc(OCCC2CCN(c3ccc(C)nn3)CC2)cc1 [Pirodavir, reference compound] | – | – | 30 | – | – | 7.5 | > 100 | > 100 | CC50 at 2 days [9]: > 10 µM |
